Laboratory results taken from patent publication US20250248922A1, “METHOD OF PREPARING A MASTOCARPUS STELLATUS EXTRACT” (GIVAUDAN SA, priority 2022, published 2025).

Tested on: human mature adipocytes
Assay: Lipolytic activity: glycerol release by 3D culture of human mature adipocytes
Format: cell-based
Settings: 72 h of treatment, extract 0.5%
Procedure: Mature adipocytes were isolated from subcutaneous adipose tissue after digestion by collagenase. The isolated adipocytes were washed with a wash buffer and encapsulated in a peptidic hydrogel to form 3D adipocytes capsules of 25 μl in size. The formation of adipocytes capsules followed an internal standardized protocol to have about the same number of adipocytes between the capsules. Cells were then incubated for 24 h at 37° C. for stabilization. Treatments with Mastocarpus stellatus extract at 0.5% were initiated at D0 with a medium change; and the culture media were changed every day until 4 days of culture. At each culture media change, the cells secretions were collected, centrifuged and frozen at-80° C. for further analysis. Each culture condition was done in triplicate. The culture media after 72 h of treatment were collected. The concentrations of adiponectin and glycerol were evaluated by ELISA and colorimetric assays, respectively, using specific kits according to the manufacture's recommendations (adiponectin kit, Duoset, DY1065, R&D Systems; Glycerol kit, Randox, GY105).

CC(C)NCC(O)c1ccc(O)c(O)c1 (centres unmarked) [Isoproterenol]
Glycerol release (% of untreated), average (isoproterenol 1 μM (positive control)): 295.6 % of untreated
increase of glycerol release (isoproterenol 1 μM, vs untreated): +196%
